Activity calls are given as the source filed them. The calls are words filed in the database; no cut-off is given here.
Tests used:
HGC-27 [1] = test: Induction of apoptosis in human HGC-27 cells assessed as early apoptotic cells at 3 uM measured after 24 hrs by AnnexinV/FITC staining based flow cytometry method (reference value: 0.7%); assay type: functional
MGC-803 [2] = test: Antitumour activity against human MGC-803 cells xenografted in NOD-SCID mouse assessed as reduction on tumour growth at 100 mg/kg/day, IG measured after 21 days relative to control; assay type: functional; details: MGC-803, po, 504 h, time 21 day, read-out: TGI
MGC-803 [3] = test: Induction of apoptosis in human MGC-803 cells assessed as late apoptotic cells at 7.5 uM measured after 24 hrs by AnnexinV/FITC staining based flow cytometry method (reference value: 2%); assay type: functional
MGC-803 [4] = test: Induction of apoptosis in human MGC-803 cells assessed as early apoptotic cells at 5 uM measured after 24 hrs by AnnexinV/FITC staining based flow cytometry method (reference value: 1.3%); assay type: functional
HGC-27 [5] = test: Induction of apoptosis in human HGC-27 cells assessed as late apoptotic cells at 6 uM measured after 48 hrs by AnnexinV/FITC staining based flow cytometry method (reference value: 1%); assay type: functional
[6] = Toxicity in NOD-SCID mouse xenografted with human MGC-803 cells assessed as change in body weight at 50 to 100 mg/kg/day, IG measured after 21 days; assay type: organism-based; details: in vivo, po, 504 h, dose 50-100 mg/kg/day, time 21 day
MGC-803 [7] = test: Induction of apoptosis in human MGC-803 cells assessed as viable cells at 2.5 uM measured after 24 hrs by AnnexinV/FITC staining based flow cytometry method (reference value: 94.8%); assay type: functional; details: read-out: Activity
MGC-803 [8] = test: Induction of apoptosis in human MGC-803 cells assessed as reduction of mitochondrial membrane potential at 2.5 uM measured after 24 hrs by JC-1 staining based Flowcytometry assay (reference value: 3.8%); assay type: functional; parameters: scale not given: the % may be the effect or the level left
HGC-27 [9] = test: Induction of apoptosis in human HGC-27 cells assessed as necrotic cells at 6 uM measured after 48 hrs by AnnexinV/FITC staining based flow cytometry method (reference value: 0.1%); assay type: functional
HGC-27 [10] = test: Induction of apoptosis in human HGC-27 cells assessed as early apoptotic cells at 9 uM measured after 24 hrs by AnnexinV/FITC staining based flow cytometry method (reference value: 0.7%); assay type: functional
HGC-27 [11] = test: Induction of apoptosis in human HGC-27 cells assessed as early apoptotic cells at 6 uM measured after 48 hrs by AnnexinV/FITC staining based flow cytometry method (reference value: 5.8%); assay type: functional
MGC-803 [12] = test: Cell cycle arrest in human MGC-803 cells assessed as accumulation of cells at G2/M phase at 2.5 uM measured after 24 hrs by Flowcytometry assay (reference value: 13.71%); assay type: functional
HGC-27 [13] = test: Induction of apoptosis in human HGC-27 cells assessed as late apoptotic cells at 9 uM measured after 24 hrs by AnnexinV/FITC staining based flow cytometry method (reference value: 2.4%); assay type: functional
HGC-27 [14] = test: Induction of apoptosis in human HGC-27 cells assessed as ROS levels at 9 uM measured after 24 hrs by DCFH-DA staining based flow cytometry assay (reference value: 6.8%); assay type: functional
MGC-803 [15] = test: Induction of apoptosis in human MGC-803 cells assessed as late apoptotic cells at 7.5 uM measured after 48 hrs by AnnexinV/FITC staining based flow cytometry method (reference value: 0.9%); assay type: functional
MGC-803 [16] = test: Induction of apoptosis in human MGC-803 cells assessed as up-regulation of Nrf2 expression in cytoplasm at 2.5 to 7.5 uM measured after 24 hrs by Western blot assay; assay type: functional, cell-based; details: dose 2.5-7.5 µM
HGC-27 [17] = test: Induction of apoptosis in human HGC-27 cells assessed as early apoptotic cells at 6 uM measured after 24 hrs by AnnexinV/FITC staining based flow cytometry method (reference value: 0.7%); assay type: functional
MGC-803 [18] = test: Induction of apoptosis in human MGC-803 cells assessed as necrotic cells at 7.5 uM measured after 24 hrs by AnnexinV/FITC staining based flow cytometry method (reference value: 1.9%); assay type: functional
[19] = target: T1, NEDD8-activating enzyme E1 regulatory subunit (Homo sapiens) (UniProt Q13564); test: Inhibition of NAE-mediated neddylation in human MGC-803 cells assessed as cullin3-Nedd8 adduct formation at 2.5 to 7.5 uM measured after 24 hrs by western blot assay; assay type: cell-based; details: dose 2.5-7.5 µM
T1 sequence (whole entry): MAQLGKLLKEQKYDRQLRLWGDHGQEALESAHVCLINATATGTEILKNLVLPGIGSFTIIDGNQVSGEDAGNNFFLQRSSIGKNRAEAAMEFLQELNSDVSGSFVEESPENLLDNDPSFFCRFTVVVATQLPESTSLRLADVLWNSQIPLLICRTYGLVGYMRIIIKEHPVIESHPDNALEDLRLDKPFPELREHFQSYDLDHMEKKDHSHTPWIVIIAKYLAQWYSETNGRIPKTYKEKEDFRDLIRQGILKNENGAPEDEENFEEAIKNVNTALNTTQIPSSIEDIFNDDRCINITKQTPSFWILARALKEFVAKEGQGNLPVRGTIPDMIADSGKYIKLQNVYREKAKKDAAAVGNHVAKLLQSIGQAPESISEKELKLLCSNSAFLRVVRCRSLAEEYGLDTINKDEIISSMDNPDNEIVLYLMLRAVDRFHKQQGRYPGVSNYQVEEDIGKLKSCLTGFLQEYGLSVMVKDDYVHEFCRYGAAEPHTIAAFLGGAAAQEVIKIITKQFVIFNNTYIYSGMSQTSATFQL

HGC-27 [20] = test: Antiproliferative activity against human HGC-27 cells assessed as inhibition of cell proliferation measured after 72 hrs by MTT assay; assay type: functional, cell-based; details: HGC-27, 72 h
HGC-27 [21] = test: Induction of apoptosis in human HGC-27 cells assessed as reduction of mitochondrial membrane potential at 9 uM measured after 24 hrs by JC-1 staining based Flowcytometry assay (reference value: 2.4%); assay type: functional; parameters: scale not given: the % may be the effect or the level left
MGC-803 [22] = test: Induction of apoptosis in human MGC-803 cells assessed as early apoptotic cells at 2.5 uM measured after 48 hrs by AnnexinV/FITC staining based flow cytometry method (reference value: 1.5%); assay type: functional
MGC-803 [23] = test: Cell cycle arrest in human MGC-803 cells assessed as accumulation of cells at G0/G1 phase at 5 uM measured after 24 hrs by Flowcytometry assay (reference value: 46.01%); assay type: functional
MGC-803 [24] = test: Cell cycle arrest in human MGC-803 cells assessed as accumulation of cells at S phase at 5 uM measured after 24 hrs by Flowcytometry assay (reference value: 36.51%); assay type: functional
MGC-803 [25] = test: Induction of apoptosis in human MGC-803 cells assessed as viable cells at 5 uM measured after 48 hrs by AnnexinV/FITC staining based flow cytometry method (reference value: 97.4%); assay type: functional; details: read-out: Activity
MGC-803 [26] = test: Cell cycle arrest in human MGC-803 cells assessed as accumulation of cells at S phase at 2.5 uM measured after 24 hrs by Flowcytometry assay (reference value: 36.51%); assay type: functional
MGC-803 [27] = test: Antiproliferative activity against human MGC-803 cells assessed as inhibition of cell proliferation measured after 72 hrs by MTT assay; assay type: functional, cell-based; details: MGC-803, 72 h
HGC-27 [28] = test: Induction of apoptosis in human HGC-27 cells assessed as necrotic cells at 3 uM measured after 48 hrs by AnnexinV/FITC staining based flow cytometry method (reference value: 0.1%); assay type: functional

CCCCCc1ccc(NC(=O)C2CCN(C/C=C/c3ccccc3)CC2)cc1
Activity (HGC-27 [1]): 7.5%
inhibition in vivo at 100 mg/kg/day (MGC-803 [2]): 39.2%
Activity (MGC-803 [3]): 82.4%
Activity (MGC-803 [4]): 0.8%
Activity (HGC-27 [5]): 21.2%
Activity [6]: Non-Toxic
viability at 2.5 µM (MGC-803 [7]): 93.5%
Activity (MGC-803 [8]): 4%
Activity (HGC-27 [9]): 0.7%
Activity (HGC-27 [10]): 2.3%
Activity (HGC-27 [11]): 32.2%
Activity (MGC-803 [12]): 17.77%
Activity (HGC-27 [13]): 74%
Activity (HGC-27 [14]): 25.7%
Activity (MGC-803 [15]): 95.6%
Activity (MGC-803 [16]): Active
Activity (HGC-27 [17]): 23.1%
Activity (MGC-803 [18]): 6.9%
inhibition [19]: Active
IC50 (HGC-27 [20]): 3.17 µM
Activity (HGC-27 [21]): 58%
Activity (MGC-803 [22]): 3%
Activity (MGC-803 [23]): 44.87%
Activity (MGC-803 [24]): 33.81%
viability at 5 µM (MGC-803 [25]): 38.4%
Activity (MGC-803 [26]): 33.01%
IC50 (MGC-803 [27]): 2.55 µM
Activity (HGC-27 [28]): 2.4%
